Measurements: paper PMC8684484, “The assessment of Pseudomonas aeruginosa lectin LecA binding characteristics of divalent galactosides using multiple techniques” (Glycobiology, 2021)
pKd: −log10 of the molar value.

Experiments:
JIL (Jacalin lectin) = biological target: T1, JIL (Jacalin lectin) (Artocarpus integer, UniProt P18670); assay: Bio-layer interferometry (BLI), biotinylated ligand on streptavidin sensor; format: binding, Jackfruits; details: immobilized ligand
T1 construct: purchased Sigma–Aldrich (Steinheim, Germany)
T1 sequence (P18670 whole entry): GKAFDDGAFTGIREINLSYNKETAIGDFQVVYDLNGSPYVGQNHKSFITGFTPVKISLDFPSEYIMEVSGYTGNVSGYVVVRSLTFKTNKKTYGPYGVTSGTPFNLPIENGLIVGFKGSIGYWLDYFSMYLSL
T1 sequence (P18673 whole entry, further chain): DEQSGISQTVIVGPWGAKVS
Protocol: (§1) The biotinylated galactoside 3 (Figure 5) was immobilized on a streptavidin coated sensor. […] This is likely due to the well-known low affinity of monovalent ligands for most lectins even though the presentation of the ligand on the chip was also multivalent, but apparently not matching the distances between binding sites. Next, the binding properties of the divalent biotinylated 4 with the mentioned lectins were evaluated. […] Indeed, during the dissociation step, the signal only partially decreases down to the baseline and this lack of full dissociation indicates high affinity. Using this setup, kinetic parameters of the interaction were determined for the divalent galactoside to evaluate whether the divalent binding mode of this ligand influences the lectin–ligand kinetics. By fitting the sensorgrams with a global model ([…]), association (ka or kon) and dissociation (kd or koff) constants were determined and the KD was calculated from the ratio of kd over the ka while the residence time (τ) was derived from 1/kd. […] The same was true for compound 4 and lectins MPL and JIL.
BLI measurements were carried out using an Octet RED 384 instrument (ForteBio). Biosensors were transferred into fresh assay buffer for 180 s to collect a baseline read. […] The KD derived from kinetic fitting was calculated as koff/kon.

LecA [1] = biological target: T2, LecA (Pseudomonas aeruginosa, UniProt Q05097); assay: as above; format: binding; details: immobilized ligand
T2 construct: purchased Sigma–Aldrich (Steinheim, Germany)
T2 sequence (Q05097 2-122): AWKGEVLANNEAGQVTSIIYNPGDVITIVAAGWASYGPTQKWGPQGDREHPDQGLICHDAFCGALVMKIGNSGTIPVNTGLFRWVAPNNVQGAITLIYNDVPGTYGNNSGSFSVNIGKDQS
Protocol: as §1
(§2) BLI measurements were carried out using an Octet RED 384 instrument (ForteBio). Biosensors were transferred into fresh assay buffer for 180 s to collect a baseline read. Compound 3 and compound 4 were immobilized on streptavidin (SA)-functionalized biosensors to maximum levels by incubation for 900 s at 1 μM ([Guo et al. 2018]). For each set of biosensors, an 180 s baseline in buffer alone was acquired followed by an 1800 s association step and an 1800 s dissociation step. All experiments were carried out using PBS (10 mM phosphate, 150 mM NaCl, pH 7.4) as the assay buffer at 298 K. Data were processed and analyzed and KD values were determined using the global fitting procedures as implemented in Octet® system Data Analysis Software 9.0.0.48 (Pall ForteBio LLC, Menlo Park, CA, USA). Kinetic responses were fitted to a 1-site binding model to obtain values for association (kon) and dissociation (koff) rate constants. The KD derived from kinetic fitting was calculated as koff/kon.

MPL = biological target: T3, MPL (Maclura pomifera, UniProt P18674); assay: as above; format: binding; details: immobilized ligand
T3 construct: purchased Vector Laboratories (San Francisco, CA, USA)
T3 sequence (P18674 whole entry): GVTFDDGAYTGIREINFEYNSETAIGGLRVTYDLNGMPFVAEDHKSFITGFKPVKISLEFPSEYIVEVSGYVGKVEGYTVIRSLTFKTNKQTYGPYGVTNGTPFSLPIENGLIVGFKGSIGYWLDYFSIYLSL
T3 sequence (P18676 whole entry partner): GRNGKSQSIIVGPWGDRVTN
Protocol: as §1, §2

LecA [2] = biological target: T2, LecA; assay: Native ESI-MS occupancy of the LecA tetramer; format: binding; details: ligand 600 μM, LecA 10 μM; estimated from MS intensities
Protocol: At the high concentration of monovalent compound 1 (600 μM) incubated with LecA (10 μM), a varying number of binding pockets of the tetrameric lectin were occupied by the monovalent ligand indicated by four different peaks in close proximity (Figure 8b). At these concentrations, an estimated number of copies of LecA of 8% remains fully unoccupied, 18% has one pocket occupied, 26% has two pockets occupied, 27% has three pockets occupied and 21% is fully occupied. We used the intensity values as determined by mass spectrometry as a proxy of their abundances in solution to calculate the occupancy values, for which previously it was shown that there is good correlation ([Seo et al. 2016]).
At a low (substoichiometric) concentration of divalent compound 2 (2 μM), 3 m/z peaks were observed that correspond to unbound LecA (estimated 6%), LecA bound to one compound 2 (estimated 39%) and LecA bound to two of the divalent ligand 2 (estimated 55%) (Figure 8c). […] As no peaks were detected corresponding to a single or triple binding pockets of the tetrametric lectin, excellent support is provided for the effective divalent binding of our molecule at reasonable concentrations.
To investigate the interaction between LecA and compounds 1 and 2, we incubated these compounds with LecA and transferred the produced complex into a 150 mM ammonium acetate solution (pH 7.5) by applying 10 μM of the protein ligand complex in a ratio of 1:1 on a pre-equilibrated 6-kDa Micro Bio-Spin column (Bio-Rad). The protein was eluted by centrifugation at 1,000 × g and 4°C. MS measurements were performed in positive ion mode using an Electrospray Ionization Time-of-Flight instrument (LC-T; Micromass, Manchester, UK) equipped with a Z-spray nanoelectrospray ionization source. Samples were sprayed from in-house prepared borosilicate glass capillaries (Kwik-Fil; World Precision Instruments, Sarasota, FL) prepared on a P-97 puller (Sutter Instruments, Novato, CA, USA) and coated with a thin layer of gold by using an Edwards Scan coat six Pirani 501 sputter coater (Edwards Laboratories, Milpitas, CA, USA). Instrument settings were adjusted for optimal transmission of high mass ions. A capillary voltage of 1300 V was used, in combination with a sampling cone voltage of 60 V. The source backing pressure was elevated to approximately 6.7 mbar in order to promote collisional cooling. All TOF data were mass calibrated by using an aqueous solution of cesium iodide (25 mg·mL^−1) and interpreted manually using MassLynx software (Waters, version 4.1).

[3] = biological target: T4, Maclura pomifera Lectin (MPL) (Maclura pomifera, UniProt P18674); assay: ACE selectivity experiment with MPL as binding competitor; details: mixture of LecA and MPL; 1 mM of 1 or 20 μM of 2 in BGE
T4 construct: purchased Vector Laboratories (San Francisco, CA, USA)
T4 sequence (P18674 whole entry): as the sequence (P18674 whole entry) above
Protocol: A mixture of LecA and MPL was analyzed by ACE, and affinity studies were carried out by adding the carbohydrates 1 and 2 to the BGE.
CE analyses were carried out using an Agilent 7100 instrument (Agilent technologies, USA). Bare fused-silica capillaries, with a 100 μm internal diameter, 365 μm outer diameter and a 50 cm total length, were from Biotaq (Gaithersburg, MD, USA). The detection window of the capillary was created at 10 cm from the outlet of the capillary. Hydrodynamic injections were performed at 17 mbar for 4 s, by injecting LecA or MPL (10 μM). The separation voltage was set at −10 kV and the caplillary temperature was maintained at 25°C during analysis. Ultraviolet detection was performed from 190 nm to 280 nm, but data recorded at 214 nm were used in this study. The BGE for the analysis of the lectins was potassium phosphate prepared by dissolving the appropriate amount of compounds in water and adjusting the pH with a sodium hydroxide solution. Capillaries were coated with Ultra Trol LN. Stable currents of 45 μA were observed during the affinity measurements with optimum buffer conditions (25 mM KH2PO4 at pH 7).
In order to study the affinity of LecA toward inhibitors, LecA was injected and carbohydrate inhibitors were added to the BGEs. BGEs were prepared containing 1 mM of compound 1, 20 μM of compound 2, or without carbohydrate. […]

LecA [4] = biological target: T2, LecA; assay: Fluorescence-based thermal shift assay (TSA), Sypro orange; format: binding; details: ligand 500 μM; for Tm of LecA: no ligand 71.7
Protocol: As ligand binding is known to shift the melting point of proteins in a ligand concentration dependent manner, we performed the TSA experiments with two different concentrations of LecA (0.5 and 1 mg/mL) containing the fluorescent dye sypro orange. […] Therefore, we selected a fixed concentration of 1 mg/mL for the subsequent experiments. […] Divalent 2 stabilizes LecA by more than 11°C at a concentration of 20 μM (Figure 7).
TSA was performed using a standard real-time PCR instrument. To monitor protein unfolding, the fluorescent dye Sypro orange was used. Sypro orange is an environmentally sensitive dye (Thermo Fischer 5000x in DMSO). The unfolding process exposes the hydrophobic region of proteins and results in a large increase in fluorescence, which is used to monitor the protein-unfolding transition ([Lo et al. 2004]). The TSA was performed with a BioRad CFX96 real-time PCR machine, and analysis for binding induced shifts in thermal transition was performed with Bio-Rad CFX Manager 3.1 Software provided by the manufacturer (BioRad, Hercules, CA, USA).
Galactose based inhibitors specifically bind to the binding pocket of the lectin. Ligands could stabilize LecA (0.5 and 1 mg/mL) upon binding and therefore the protein Tm might increase. The shift in Tm with an addition of the ligand (ΔTm) serves as a qualitative measure of protein stability and allows to determine whether a protein–ligand binding event occurs. We here show the effect of different carbohydrates on the thermal denaturation of LecA. Sypro orange conc, used: 320× from commercial 5000×).

LecA [5] = biological target: T2, LecA; assay: Affinity capillary electrophoresis (ACE), direct binding, μeff shift of LecA with carbohydrate in BGE
Protocol: For affinity studies, two different LecA ligands were used. The first was the carboxylated galactoside (1). This was used as the reference monovalent ligand and its negatively charged carboxylate increases the chances of a protein shift in CE where charges are the important mobility determinant. Furthermore we used the bivalent carbohydrate (2), previously optimized for bivalent binding ([Yu et al. 2019b]). These glycoligands were added to the optimized CE background electrolyte (BGE) and the protein LecA was injected. For KD determination the BGE containing increasing concentrations of carbohydrate 1 or carbohydrate 2 were prepared and used for the analysis of LecA (10 μM). […] For each carbohydrate and each concentration, the difference of the measured μeff of LecA with the μeff acquired without carbohydrate in the BGE, was determined. […]
CE analyses were carried out using an Agilent 7100 instrument (Agilent technologies, USA). […] Ultraviolet detection was performed from 190 nm to 280 nm, but data recorded at 214 nm were used in this study. […]
BGEs containing increasing concentrations of compound 1 and/or compound 2 were prepared at the pH for which μeff shifts were observed and used for KD determination. For each carbohydrate and each studied concentration, the difference of the measured μeff of LecA with the μeff obtained without carbohydrate was determined. […]

SMILES | BLI signal (JIL (Jacalin lectin); JIL at 1 μM) | BLI association and dissociation (JIL (Jacalin lectin); JIL up to 10 μM) | BLI signal (LecA [1]; LecA at 1 μM) | BLI association and dissociation (LecA [1]; LecA up to 10 μM) | BLI signal (MPL; MPL at 1 μM) | BLI association and dissociation (MPL; MPL up to 10 μM) | LecA fully occupied (LecA [2]) [%] | LecA fully unoccupied (LecA [2]) [%] | LecA with one pocket occupied (LecA [2]) [%] | LecA with three pockets occupied (LecA [2]) [%] | LecA with two pockets occupied (LecA [2]) [%] | μeff shift of MPL with carbohydrate in BGE [3] | Tm of LecA (LecA [4]) [°C] | pKd (LecA [5]) | μeff shift of LecA with carbohydrate in BGE (LecA [5]; mixture of LecA and MPL, 1 mM of 1 or 20 μM of 2 in BGE) | stabilization of LecA (ΔTm) (LecA [4]; LecA 1 mg/mL)
O=C(CCCC[C@@H]1SC[C@@H]2NC(=O)N[C@@H]21)NCCCCCC(=O)NCCCO[C@@H]1O[C@H](CO)[C@H](O)[C@H](O)[C@H]1O [Compound 3] | no detectable signal | no significant association and dissociation phenomena | no detectable signal | no significant association and dissociation phenomena | no detectable signal | no significant association and dissociation phenomena |  |  |  |  |  |  |  |  |  | 
O=C(O)CO[C@@H]1O[C@H](CO)[C@H](O)[C@H](O)[C@H]1O [Compound 1] |  |  |  |  |  |  | 21 | 8 | 18 | 27 | 26 | sizeable shift | 74.0 | 4.57 | sizeable shift | 
OC[C@H]1OC(O)[C@@H](O)[C@@H](O)[C@@H]1O (stereo partly drawn) [D-Mannose, D-mannose] |  |  |  |  |  |  |  |  |  |  |  |  | 71.7 |  |  | did not stabilize LecA at all
